Test results: patent US5504097A, “N-hydroxyureas as 5-lipoxygenase inhibitors and inhibitors of oxidative modification of low density lipoprotein” (American Home Products Corporation, priority 1995, dated 1996)

Assays:
LTB4 = assay: Reverse Passive Arthus Reaction (pleurisy), LTB4 in pleural exudate; assay type: in vivo, male Lewis rats; details: p.o.
Experimental: 3. Reverse Passive Arthus Reaction
A reverse passive Arthus reaction is induced in the pleural cavity of male Lewis rats (150-200 g; fasted overnight prior to use) by the intravenous administration of bovine serum albumin (BSA; 4 mg/0.2 ml) followed 30 minutes later by the injection of rabbit anti-BSA (1 mg/2.0 ml; lyophilized IgG fraction; Organon Teknika, West Chester, Pa.) into the right pleural space under halothane anesthesia. Drugs or vehicle (0.5% Tween-80) control are administered orally in a volume of 1 ml/100 g body weight at 1 hour prior to the anti-BSA. Animals are sacrificed at either the time of peak eicosanoid production (i.e. 5 minutes after anti-BSA for immunoreactive T×B2, 10 minutes for immunoreactive LTB4, 20 minutes for immunoreactive LTC4) or at the time of peak neutrophil infiltration (4 hours after anti-BSA) by CO2 inhalation. The pleural cavity is then exposed, the fluid exudate removed by gentle vacuum aspiration and the volume of exudate is recorded. For the determination of cellular infiltration, the pleural cavity is rinsed with 3 ml of 0.1% EDTA in sterile saline, and the recovered wash is pooled with the exudate. Cell number is determined on a model ZBI Coulter counter. For determination of eicosanoid production, undiluted pleural exudate is microfuged and the supernatant is extracted with ethanol (8-10 times volume). Extracts are either stored at -20° C., or are evaporated to dryness under a stream of N2 and reconstituted in radioimmunoassay (RIA) buffer.
Eicosanoids are quantitated by RIA according to the procedure specified by the RIA kit manufacturer (Advanced Magnetics, Cambridge, MA). Briefly, 100 μl of ^3 H-labeled eicosanoid and 100 μl of specific antibody are sequentially added to 100 μl of extracted pleural exudate in BGG-phosphate buffer which contains 0.01M phosphate, 0.1% bovine gamma globulin and 0.1% sodium azide at pH 7.0. Antibody-bound eicosanoid is separated from unbound eicosanoid by the addition of 750 μl of dextran (0.4%)-coated charcoal (Norit A) containing 0.1% sodium azide. The mixture is centrifuged at 2000 RPM at 5° C. for 15 minutes to pellet the charcoal and adsorbed unbound eicosanoid. Antibody-bound labeled eicosanoid is quantitated by counting in a liquid scintillation counter, and is correlated to concentration by a standard curve.

5-Lipoxygenase = target: T1, 5-Lipoxygenase (Homo sapiens, UniProt P09917); assay: Inhibition of 5-Lipoxygenase in Human Whole Blood (LTB4, calcium ionophore A23187); assay type: cell-based; details: 1 μM
T1 construct: from tissue; host or cells: whole blood of male human donors (endogenous enzyme of the leukocytes)
T1 sequence (P09917 1-674): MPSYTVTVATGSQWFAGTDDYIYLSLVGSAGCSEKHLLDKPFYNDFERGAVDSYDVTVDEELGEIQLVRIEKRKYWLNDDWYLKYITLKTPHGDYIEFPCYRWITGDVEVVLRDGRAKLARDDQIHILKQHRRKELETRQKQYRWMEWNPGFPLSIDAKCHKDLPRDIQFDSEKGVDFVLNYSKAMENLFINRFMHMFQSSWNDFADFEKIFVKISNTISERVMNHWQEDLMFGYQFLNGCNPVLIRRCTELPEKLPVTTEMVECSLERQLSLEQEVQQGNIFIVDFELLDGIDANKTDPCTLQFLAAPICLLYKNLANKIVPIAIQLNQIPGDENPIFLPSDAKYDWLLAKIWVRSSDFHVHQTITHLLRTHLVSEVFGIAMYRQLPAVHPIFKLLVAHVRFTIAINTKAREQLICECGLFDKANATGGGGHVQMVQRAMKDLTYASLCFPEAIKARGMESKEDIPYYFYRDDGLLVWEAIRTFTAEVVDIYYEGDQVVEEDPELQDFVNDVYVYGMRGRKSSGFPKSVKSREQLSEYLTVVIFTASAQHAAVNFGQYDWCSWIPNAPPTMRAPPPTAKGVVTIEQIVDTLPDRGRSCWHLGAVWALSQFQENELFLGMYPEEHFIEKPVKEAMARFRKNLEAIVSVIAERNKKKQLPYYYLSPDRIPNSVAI
Experimental: 1. Inhibition of 5-Lipoxygenase in Human Whole Blood
Blood is obtained in 50-100 ml quantities from male donors. White blood cell counts and differentials are made. Two ml of blood are placed in a 15 ml polypropylene test tube. Test compounds are solubilized in dimethylsulfoxide and diluted in 1:10 in 10% bovine serum albumin in phosphate buffered saline, pH 7.4 resulting in a final dimethylsulfoxide concentration of 0.1% in the blood. Then, solutions of test compounds are added to the blood in a shaking water bath at 37° C. for 10 minutes prior to the addition of 30 μM calcium ionophore (A23187, Sigma). After ionophore administration, whole blood samples are mixed and incubated for 20 minutes at 37° C. in a shaking water bath. Incubation is terminated by placing samples in an ice bath and immediately adding ethylene glycol-bis-(β-aminoethyl ether)-N, N,N',N'-tetraacetic acid (10 mM). Samples are mixed and centrifuged at 1200× g for 15 minutes at 4° C. Preparation of samples for evaluation by RIA or ELISA is carried out by the following protocol. Plasma is removed from sample tubes, placed in 15 ml polypropylene test tubes containing 8 ml methanol, and then vortexed to precipitate protein. Samples are stored at -70° C. overnight. The next day, samples are centrifuged at 200× g for 15 minutes at 4° C. to pellet the precipitate. Samples are dried in a Savant SpeedVac Concentrator, Model SVC 200H, reconstituted to original volume with ice cold RIA or ELISA buffer, and stored at -70° C. until assayed. The assay for eicosanoids (LTB4, T×B2, and PGE2) is performed as described by the manufacturer of the ^3 H!-RIA kit or ELISA kit (LTB4 -Amersham, T×B2 and PGE2 -Caymen Chemical).
The total eicosanoid level in 2 ml of blood is calculated and reported as ng/10^6 neutrophils. Significance is determined by a one-way analysis of variance with least significant difference (LSD) comparisons to control (p≤0.05) and IC50 's (μM) are determined by regression analysis (Finney, 1978). Drug effects are expressed as percent change from control values.

Cc1oc(-c2ccccc2)nc1COc1ccc(CN(O)C(N)=O)cc1 [Example 1, 1-Hydroxy-1-4-(5-methyl-2-phenyl-oxazol-4-ylmethoxy)-benzyl!-urea]
% Inhibition of LTB4 Synthesis (LTB4; 10 mg/kg): 36%
% Inhibition of LTB4 Synthesis (LTB4; 25 mg/kg): 69%
inhibition at 1 µM (5-Lipoxygenase): 50%

Cc1oc(-c2ccc(C(F)(F)F)cc2)nc1COc1ccc(CN(O)C(N)=O)cc1 [Example 6, 1-Hydroxy-1-4-5-methyl-2-(4-trifluoromethyl-phenyl)-oxazol-4-ylmethoxy!-benzyl!-urea]
% Inhibition of LTB4 Synthesis (LTB4; 10 mg/kg): 45%
inhibition at 1 µM (5-Lipoxygenase): 34%

NC(=O)N(O)Cc1ccc(OCc2coc(-c3ccccc3)n2)cc1 [Example 9, 1-Hydroxy-1-4-(2-phenyl-oxazol-4-ylmethoxy)-benzyl!-urea]
% Inhibition of LTB4 Synthesis (LTB4; 10 mg/kg): 60%
inhibition at 1 µM (5-Lipoxygenase): 58%

NC(=O)N(O)Cc1ccc(OCc2csc(-c3ccccc3)n2)cc1 [Example 10, 1-Hydroxy-1-4-(2-phenyl-thiazol-4-ylmethoxy)-benzyl!-urea]
% Inhibition of LTB4 Synthesis (LTB4; 10 mg/kg): 99%
inhibition at 1 µM (5-Lipoxygenase): 44%
